{"source": "patent US7511145B2", "about": "(Genelabs Technologies, Inc., priority 2003, dated 2009)", "molecular_target": "T1, HCV-NS5b (Hepatitis C virus genotype 1b, UniProt Q9WMX2)", "T1 construct": "(His)6 (C); made in house; host or cells: XL-1 cells (E. coli), IPTG-inducible plasmid, nickel-NTA purification", "assay": "HCV-NS5b enzyme assay (incorporation of radiolabeled UTP)", "format": "biochemical", "conditions": "for inhibition at 33 µM: enzyme inhibition at compound concentration of 33 uM; for inhibition at 100 µM: read-out: % inh@100, enzyme inhibition at compound concentration of 100 uM", "how_it_was_run": "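Percent inhibition, background-corrected against uninhibited control, was measured at 100 and 33 uM compound. Incorporation of [3H]-UTP (10 μM each NTP) into biotinylated HCV-template RNA, 37° C for 2 h, pH 7.5, scintillation proximity. Enzyme: C-terminally truncated (21 aa), His6-tagged NS5b from XL-1.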", "data": [{"smiles": "O=C(O)c1ccc2c(c1)nc(-c1ccc3nc(-c4ccccc4-c4ccncc4)ccc3c1)n2C1CCCCC1", "note": "[Compound 369, 1-Cyclohexyl-2-[2-(2-pyrid-4-yl-phenyl)-quinolin-6-yl]-1H-benzoimidazole-5-carboxylic acid]", "values": [{"measurement": "inhibition at 33 µM", "value": 96.2, "unit": "%"}, {"measurement": "inhibition at 100 µM", "value": 98.8, "unit": "%"}]}, {"smiles": "COc1ccc(-c2ccc(Cl)cc2)c(-c2ccc3cc(-c4nc5cc(C(=O)O)ccc5n4C4CCNCC4)ccc3n2)c1", "note": "[Compound 558, 2-[2-(4′-Chloro-4-methoxy-biphen-2-yl)-quinolin-6-yl]-1-piperidin-4-yl-1H-benzoimidazole-5-carboxylic acid]", "values": [{"measurement": "inhibition at 33 µM", "value": 32.5, "unit": "%"}, {"measurement": "inhibition at 100 µM", "value": 77.3, "unit": "%"}]}, {"smiles": "COc1ccc(-c2ccccc2)c(-c2ccc3cc(-c4nc5cc(C(=O)O)ccc5n4C4CCCCC4)ccc3n2)c1", "note": "[Compound 499, 1-Cyclohexyl-2-[2-(4-methoxy-biphen-2-yl)-quinolin-6-yl]-1H-benzoimidazole-5-carboxylic acid]", "values": [{"measurement": "inhibition at 33 µM", "value": 101, "unit": "%"}, {"measurement": "inhibition at 100 µM", "value": 99.7, "unit": "%"}]}, {"smiles": "Cc1ccc2cc(-c3ccc4cc(-c5nc6cc(C(=O)O)ccc6n5C5CCCCC5)ccc4n3)ccc2c1", "note": "[Compound 444, 1-cyclohexyl-2-[2-(6-methyl-naphthalen-2-yl)-quinolin-6-yl]-1H-benzoimidazole-5-carboxylic acid]", "values": [{"measurement": "inhibition at 33 µM", "value": 99.5, "unit": "%"}, {"measurement": "inhibition at 100 µM", "value": 101, "unit": "%"}]}, {"smiles": "COc1ccc(-c2ccc(C(=O)N3CCCC3)cc2-c2ccc3cc(-c4nc5cc(C(=O)O)ccc5n4C4CCCCC4)ccc3n2)cc1OC", "note": "[Compound 419, 1-Cyclohexyl-2-{2-[3′,4′-dimethoxy-4-(pyrrolidine-1-carbonyl)biphen-2-yl]quinolin-6-yl}-1H-benzimidazole-5-carboxylic acid]", "values": [{"measurement": "inhibition at 33 µM", "value": 101, "unit": "%"}, {"measurement": "inhibition at 100 µM", "value": 101, "unit": "%"}]}, {"smiles": "NC(=O)CNC(=O)c1ccc(-c2ccc(Cl)cc2)c(-c2ccc3cc(-c4nc5cc(C(=O)O)ccc5n4C4CCCCC4)ccc3n2)c1", "note": "[Compound 361, 2-{2-[4-(Carbamoylmethyl-carbamoyl)-4′-chloro-biphen-2-yl]-quinolin-6-yl}-1-cyclohexyl-1H-benzoimidazole-5-carboxylic acid]", "values": [{"measurement": "inhibition at 33 µM", "value": 100, "unit": "%"}, {"measurement": "inhibition at 100 µM", "value": 98.7, "unit": "%"}]}, {"smiles": "O=C(O)c1ccc2c(c1)nc(-c1ccc3nc(-c4ccccc4Br)c(-c4ccccc4)cc3c1)n2C1CCCCC1", "note": "[Compound 424, 2-[2-(2-Bromo-phenyl)-3-phenyl-quinolin-6-yl]-1-cyclohexyl-1H-benzoimidazole-5-carboxylic acid]", "values": [{"measurement": "inhibition at 33 µM", "value": 98.7, "unit": "%"}, {"measurement": "inhibition at 100 µM", "value": 99.1, "unit": "%"}]}, {"smiles": "O=C(O)C[C@H](NC(=O)c1ccc2c(c1)nc(-c1ccc3nc(-c4ccccc4)cnc3c1)n2C1CCCCC1)C(=O)O", "note": "[Compound 244, 2-{[1-Cyclohexyl-2-(2-phenyl-quinoxalin-6-yl)-1H-benzoimidazole-5-carbonyl]-amino}-succinic acid]", "values": [{"measurement": "inhibition at 33 µM", "value": 75.7, "unit": "%"}, {"measurement": "inhibition at 100 µM", "value": 97, "unit": "%"}]}, {"smiles": "COc1ccc(-c2cccc(C)c2)c(-c2ccc3cc(-c4nc5cc(C(=O)O)ccc5n4C4CCCCC4)ccc3n2)c1", "note": "[Compound 367, 1-cyclohexyl-2-[2-(4-methoxy-3′-methyl-biphen-2-yl)-quinolin-6-yl]-1H-benzoimidazole-5-carboxylic acid]", "values": [{"measurement": "inhibition at 33 µM", "value": 103, "unit": "%"}, {"measurement": "inhibition at 100 µM", "value": 101, "unit": "%"}]}, {"smiles": "NC(=O)CC[C@H](NC(=O)c1ccc2c(c1)nc(-c1ccc3nc(-c4ccccc4)cnc3c1)n2C1CCCCC1)C(=O)O", "note": "[Compound 541, 4-Carbamoyl-2-{[1-cyclohexyl-2-(2-phenyl-quinoxalin-6-yl)-1H-benzoimidazole-5-carbonyl]-amino}-butyric acid]", "values": [{"measurement": "inhibition at 33 µM", "value": 76.1, "unit": "%"}, {"measurement": "inhibition at 100 µM", "value": 98.1, "unit": "%"}]}, {"smiles": "Cc1cc(-c2ccccc2Br)nc2ccc(-c3nc4cc(C(=O)O)ccc4n3C3CCCCC3)cc12", "note": "[Compound 471, 2-[2-(2-Bromo-phenyl)-4-methyl-quinolin-6-yl]-1-cyclohexyl-1H-benzoimidazole-5-carboxylic acid]", "values": [{"measurement": "inhibition at 33 µM", "value": 97.8, "unit": "%"}, {"measurement": "inhibition at 100 µM", "value": 99.8, "unit": "%"}]}, {"smiles": "CN(C)c1cc(-c2ccccc2)nc2ccc(-c3nc4cc(C(=O)O)ccc4n3C3CCCCC3)cc12", "note": "[Compound 481, 1-cyclohexyl-2-(4-dimethylamino-2-phenyl-quinolin-6-yl)-1H-benzoimidazole-5-carboxylic acid]", "values": [{"measurement": "inhibition at 33 µM", "value": 76.5, "unit": "%"}, {"measurement": "inhibition at 100 µM", "value": 96.7, "unit": "%"}]}, {"smiles": "O=C(O)c1ccc2c(c1)nc(-c1ccc3nc(-c4cc(O)ccc4-c4ccc(Cl)cc4)ccc3c1)n2C1CCCCC1", "note": "[Compound 500, 2-[2-(4′-Chloro-4-hydroxy-biphen-2-yl)-quinolin-6-yl]-1-cyclohexyl-1H-benzoimidazole-5-carboxylic acid]", "values": [{"measurement": "inhibition at 33 µM", "value": 101, "unit": "%"}, {"measurement": "inhibition at 100 µM", "value": 101, "unit": "%"}]}, {"smiles": "O=C(O)c1ccc2c(c1)nc(-c1ccc3nc(-c4ccccc4)cc(Oc4ccc5ccc(O)cc5c4)c3c1)n2C1CCCCC1", "note": "[Compound 509, 1-cyclohexyl-2-[4-(7-hydroxy-naphthalen-2-yloxy)-2-phenyl-quinolin-6-yl]-1H-benzoimidazole-5-carboxylic acid]", "values": [{"measurement": "inhibition at 33 µM", "value": 100, "unit": "%"}, {"measurement": "inhibition at 100 µM", "value": 101, "unit": "%"}]}, {"smiles": "Nc1ccc(-c2ccc3cc(-c4nc5cc(C(=O)O)ccc5n4C4CCCCC4)ccc3n2)cc1", "note": "[Compound 358, 2-[2-(4-amino-phenyl)-quinolin-6-yl]-1-cyclohexyl-1H-benzoimidazole-5-carboxylic acid]", "values": [{"measurement": "inhibition at 33 µM", "value": 85.1, "unit": "%"}, {"measurement": "inhibition at 100 µM", "value": 95.3, "unit": "%"}]}, {"smiles": "O=C(O)c1ccc2c(c1)nc(-c1ccc3nc(-c4cccc(-c5ccc(Cl)cc5)c4)ccc3c1)n2C1CCCCC1", "note": "[Compound 483, 2-[2-(4′-chloro-biphenyl-3-yl)-quinolin-6-yl]-1-cyclohexyl-1H-benzoimidazole-5-carboxylic acid]", "values": [{"measurement": "inhibition at 33 µM", "value": 102, "unit": "%"}, {"measurement": "inhibition at 100 µM", "value": 99.4, "unit": "%"}]}, {"smiles": "O=C(c1ccc2c(c1)nc(-c1cc3ccc(-c4ccccc4-c4ccccc4)nc3cc1F)n2C1CCCCC1)N1CCC(O)CC1", "note": "[Compound 410]", "values": [{"measurement": "inhibition at 33 µM", "value": 84.3, "unit": "%"}, {"measurement": "inhibition at 100 µM", "value": 88.6, "unit": "%"}]}, {"smiles": "CCOc1cc(-c2ccccc2)nc2ccc(-c3nc4cc(C(=O)O)ccc4n3C3CCCCC3)cc12", "note": "[Compound 494, 1-cyclohexyl-2-(4-ethoxy-2-phenyl-quinolin-6-yl)-1H-benzoimidazole-5-carboxylic acid]", "values": [{"measurement": "inhibition at 33 µM", "value": 94.8, "unit": "%"}, {"measurement": "inhibition at 100 µM", "value": 99.2, "unit": "%"}]}, {"smiles": "CC1(C)C(CC(=O)O)CC1c1ccc2cc(-c3nc4cc(C(=O)O)ccc4n3C3CCCCC3)ccc2n1", "note": "(stereo not shown) [Compound 502, 2-[2-(3-carboxymethyl-2,2-dimethyl-cyclobutyl)-quinolin-6-yl]-1-cyclohexyl-1H-benzoimidazole-5-carboxylic acid]", "values": [{"measurement": "inhibition at 33 µM", "value": 99, "unit": "%"}, {"measurement": "inhibition at 100 µM", "value": 100, "unit": "%"}]}, {"smiles": "O=C(N[C@@H](Cc1c[nH]c2ccc(O)cc12)C(=O)O)c1ccc2c(c1)nc(-c1ccc3ncc(-c4ccccc4)nc3c1)n2C1CCCCC1", "note": "[Compound 236, 2-{[1-Cyclohexyl-2-(3-phenyl-quinoxalin-6-yl)-1H-benzoimidazole-5-carbonyl]-amino}-3-(5-hydroxy-1H-indol-3-yl)-propionic acid]", "values": [{"measurement": "inhibition at 33 µM", "value": 99.2, "unit": "%"}, {"measurement": "inhibition at 100 µM", "value": 99.2, "unit": "%"}]}, {"smiles": "O=C(O)c1ccc2c(c1)nc(-c1ccc3nc(-c4cc(Br)ccc4O)ccc3c1)n2C1CCCCC1", "note": "[Compound 354, 2-[2-(5-Bromo-2-hydroxy-phenyl)-quinolin-6-yl]-1-cyclohexyl-1H-benzoimidazole-5-carboxylic acid]", "values": [{"measurement": "inhibition at 33 µM", "value": 98, "unit": "%"}, {"measurement": "inhibition at 100 µM", "value": 101, "unit": "%"}]}, {"smiles": "C[C@H](NC(=O)c1ccc2c(c1)nc(-c1ccc3nc(-c4ccccc4)cnc3c1)n2C1CCCCC1)C(=O)O", "note": "[Compound 310, 2-[(2-(2-phenyl-quinoxalin-6-yl)-1-cyclohexyl-1H-benzoimidazole-5-carbonyl)-amino]-propionic acid]", "values": [{"measurement": "inhibition at 33 µM", "value": 83.2, "unit": "%"}, {"measurement": "inhibition at 100 µM", "value": 98.3, "unit": "%"}]}, {"smiles": "NC(=O)[C@H](Cc1cnc[nH]1)NC(=O)c1ccc2cc(-c3nc4cc(C(=O)O)ccc4n3C3CCCCC3)ccc2n1", "note": "[Compound 368]", "values": [{"measurement": "inhibition at 33 µM", "value": 51.2, "unit": "%"}, {"measurement": "inhibition at 100 µM", "value": 79.5, "unit": "%"}]}, {"smiles": "O=C(O)COc1cccc(-c2ccc3cc(-c4nc5cc(C(=O)O)ccc5n4C4CCCCC4)ccc3n2)c1", "note": "[Compound 359, 2-[2-(3-Carboxymethoxy-phenyl)-quinolin-6-yl]-1-cyclohexyl-1H-benzoimidazole-5-carboxylic acid]", "values": [{"measurement": "inhibition at 33 µM", "value": 97.3, "unit": "%"}, {"measurement": "inhibition at 100 µM", "value": 99.6, "unit": "%"}]}, {"smiles": "O=C(O)c1ccc2c(c1)nc(-c1ccc3nc(-c4ccc(O)cc4O)ccc3c1)n2C1CCCCC1", "note": "[Compound 364, 1-cyclohexyl-2-[2-(2,4-dihydroxy-phenyl)-quinolin-6-yl]-1H-benzoimidazole-5-carboxylic acid]", "values": [{"measurement": "inhibition at 33 µM", "value": 98.6, "unit": "%"}, {"measurement": "inhibition at 100 µM", "value": 101, "unit": "%"}]}, {"smiles": "O=C(O)c1ccc2c(c1)nc(-c1ccc3nc(-c4ccccc4-c4ccccc4)ccc3c1)n2C1CCCCC1", "note": "[Compound 395, 2-(2-biphen-2-yl-quinolin-6-yl)-1-cyclohexyl-1H-benzoimidazole-5-carboxylic acid]", "values": [{"measurement": "inhibition at 33 µM", "value": 100, "unit": "%"}, {"measurement": "inhibition at 100 µM", "value": 101, "unit": "%"}]}, {"smiles": "COc1ccc(-c2cccc([N+](=O)[O-])c2)c(-c2ccc3cc(-c4nc5cc(C(=O)O)ccc5n4C4CCCCC4)ccc3n2)c1", "note": "[Compound 420, 1-cyclohexyl-2-[2-(4-methoxy-3′-nitro-biphen-2-yl)-quinolin-6-yl]-1H-benzoimidazole-5-carboxylic acid]", "values": [{"measurement": "inhibition at 33 µM", "value": 98.3, "unit": "%"}, {"measurement": "inhibition at 100 µM", "value": 98.3, "unit": "%"}]}, {"smiles": "O=C(N[C@@H](Cc1c[nH]c2ccc(O)cc12)C(=O)O)c1ccc2c(c1)nc(-c1ccc3ncc(-c4ccccc4)cc3c1)n2C1CCCCC1", "note": "[Compound 238, 2-{[1-Cyclohexyl-2-(3-phenyl-quinolin-6-yl)-1H-benzoimidazole-5-carbonyl]-amino}-3-(5-hydroxy-1H-indol-3-yl)-propionic acid]", "values": [{"measurement": "inhibition at 33 µM", "value": 97.6, "unit": "%"}, {"measurement": "inhibition at 100 µM", "value": 98.4, "unit": "%"}]}, {"smiles": "COc1cccc(O)c1-c1ccc2cc(-c3nc4cc(C(=O)O)ccc4n3C3CCCCC3)ccc2n1", "note": "[Compound 434, 1-cyclohexyl-2-[2-(2-hydroxy-6-methoxy-phenyl)-quinolin-6-yl]-1H-benzoimidazole-5-carboxylic acid]", "values": [{"measurement": "inhibition at 33 µM", "value": 105, "unit": "%"}, {"measurement": "inhibition at 100 µM", "value": 102, "unit": "%"}]}]}
